# Biological target: ATR kinase (full-length ATR) (Homo sapiens (Human), UniProt Q13535)
# Assay: ATR inhibition assay (radioactive-phosphate incorporation)
# Assay type: biochemical
# Conditions: not given
# How it was run: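 Radiometric 33P incorporation by 5 nM full-length ATR into 800 μM target peptide with 10 μM [γ-33P]ATP, in 50 mM Tris/HCl pH 7.5, 10 mM MgCl2, 1 mM DTT, 7% DMSO, 25° C. Compound pre-incubated 10 minutes; reaction stopped after 24 hours, captured on phosphocellulose. Ki(app) from non-linear regression of initial rates.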
# Sequence of ATR kinase (full-length ATR) (Q13535 whole entry): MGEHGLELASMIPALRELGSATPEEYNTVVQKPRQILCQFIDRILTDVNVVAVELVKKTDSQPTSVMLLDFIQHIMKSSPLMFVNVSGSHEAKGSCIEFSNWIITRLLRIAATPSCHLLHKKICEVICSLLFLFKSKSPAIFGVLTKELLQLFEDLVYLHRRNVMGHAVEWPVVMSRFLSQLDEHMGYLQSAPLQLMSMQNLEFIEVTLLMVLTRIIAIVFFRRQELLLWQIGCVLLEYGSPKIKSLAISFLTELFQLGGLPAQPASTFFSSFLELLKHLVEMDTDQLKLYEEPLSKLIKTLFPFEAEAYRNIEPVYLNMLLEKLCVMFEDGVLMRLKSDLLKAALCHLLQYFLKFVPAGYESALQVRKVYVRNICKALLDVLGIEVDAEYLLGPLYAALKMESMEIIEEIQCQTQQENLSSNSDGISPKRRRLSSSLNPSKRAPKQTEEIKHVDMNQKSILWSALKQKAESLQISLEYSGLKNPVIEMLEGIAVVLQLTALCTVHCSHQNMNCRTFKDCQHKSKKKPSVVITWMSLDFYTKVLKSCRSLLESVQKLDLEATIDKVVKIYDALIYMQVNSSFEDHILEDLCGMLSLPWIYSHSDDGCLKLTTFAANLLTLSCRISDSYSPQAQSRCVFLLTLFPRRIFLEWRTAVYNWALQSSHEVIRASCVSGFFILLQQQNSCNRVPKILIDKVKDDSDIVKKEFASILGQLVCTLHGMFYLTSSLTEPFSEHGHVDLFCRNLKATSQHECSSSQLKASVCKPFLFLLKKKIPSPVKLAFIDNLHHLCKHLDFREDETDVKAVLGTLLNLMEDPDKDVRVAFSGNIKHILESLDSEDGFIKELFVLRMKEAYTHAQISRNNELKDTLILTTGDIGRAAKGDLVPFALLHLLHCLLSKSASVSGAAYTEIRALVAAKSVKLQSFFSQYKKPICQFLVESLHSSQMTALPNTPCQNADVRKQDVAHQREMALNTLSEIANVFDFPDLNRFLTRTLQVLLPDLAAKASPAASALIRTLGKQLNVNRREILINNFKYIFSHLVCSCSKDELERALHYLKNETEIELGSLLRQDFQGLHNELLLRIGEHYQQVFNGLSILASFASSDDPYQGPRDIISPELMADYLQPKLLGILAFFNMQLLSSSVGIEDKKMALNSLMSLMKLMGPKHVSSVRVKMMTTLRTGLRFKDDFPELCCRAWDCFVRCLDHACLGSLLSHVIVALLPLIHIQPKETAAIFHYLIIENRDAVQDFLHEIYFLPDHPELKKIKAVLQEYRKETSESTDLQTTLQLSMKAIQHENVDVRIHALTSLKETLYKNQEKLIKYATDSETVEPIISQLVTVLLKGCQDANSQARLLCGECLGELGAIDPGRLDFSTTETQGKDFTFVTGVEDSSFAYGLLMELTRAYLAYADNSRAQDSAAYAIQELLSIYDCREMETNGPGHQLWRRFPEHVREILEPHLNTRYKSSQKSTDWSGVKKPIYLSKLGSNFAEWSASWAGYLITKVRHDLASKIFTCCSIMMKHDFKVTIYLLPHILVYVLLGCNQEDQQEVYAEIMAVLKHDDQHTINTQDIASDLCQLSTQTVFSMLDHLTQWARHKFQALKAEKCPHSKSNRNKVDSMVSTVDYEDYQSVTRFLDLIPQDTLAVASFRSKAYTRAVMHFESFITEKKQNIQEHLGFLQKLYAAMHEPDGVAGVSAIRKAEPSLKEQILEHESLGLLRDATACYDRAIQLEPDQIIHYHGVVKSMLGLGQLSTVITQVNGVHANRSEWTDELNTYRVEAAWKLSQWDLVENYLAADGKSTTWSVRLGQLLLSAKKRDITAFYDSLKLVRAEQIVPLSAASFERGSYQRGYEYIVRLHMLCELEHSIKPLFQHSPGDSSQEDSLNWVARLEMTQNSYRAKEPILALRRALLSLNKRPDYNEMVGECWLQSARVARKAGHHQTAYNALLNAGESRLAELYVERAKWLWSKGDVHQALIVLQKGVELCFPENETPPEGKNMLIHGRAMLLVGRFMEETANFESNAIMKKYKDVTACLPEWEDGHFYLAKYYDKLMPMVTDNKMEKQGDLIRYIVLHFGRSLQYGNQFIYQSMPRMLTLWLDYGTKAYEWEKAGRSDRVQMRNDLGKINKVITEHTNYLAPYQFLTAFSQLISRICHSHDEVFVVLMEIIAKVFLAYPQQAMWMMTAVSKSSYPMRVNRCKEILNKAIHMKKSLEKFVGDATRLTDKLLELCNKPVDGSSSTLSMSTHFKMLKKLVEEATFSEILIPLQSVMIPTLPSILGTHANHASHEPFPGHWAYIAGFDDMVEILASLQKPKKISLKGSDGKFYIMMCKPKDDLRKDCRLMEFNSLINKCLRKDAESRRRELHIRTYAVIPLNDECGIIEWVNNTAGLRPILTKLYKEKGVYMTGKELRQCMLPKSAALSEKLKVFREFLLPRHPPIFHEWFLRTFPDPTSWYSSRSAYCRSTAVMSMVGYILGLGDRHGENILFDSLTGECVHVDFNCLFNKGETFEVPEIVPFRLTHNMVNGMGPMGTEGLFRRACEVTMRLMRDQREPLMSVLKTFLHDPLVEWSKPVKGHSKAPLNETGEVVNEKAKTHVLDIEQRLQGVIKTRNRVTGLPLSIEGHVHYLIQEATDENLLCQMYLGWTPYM
row,Ki [nM],Structure (SMILES)
1,1000 to 5000,"CC(C)(C#N)c1cnc2c(C(=O)Nc3cnccc3N3CCN(C4COC4)CC3)c(N)nn2c1 [I-N-142, 2-amino-6-(2-cyanopropan-2-yl)-N-(4-(4-(oxetan-3-yl)piperazin-1-yl)pyridin-3-yl)pyrazolo[1,5-a]pyrimidine-3-carboxamide]"
2,1000 to 5000,CC(C)(C#N)c1cnc2c(C(=O)Nc3cncc(F)c3N3CCN(C4COC4)CC3)c(N)nn2c1 [I-N-144]
3,1000 to 5000,"CN1CCN(C2CCN(c3c(F)cncc3NC(=O)c3c(N)nn4cc(F)cnc34)CC2)C(=O)C1 [I-N-151, 2-amino-6-fluoro-N-(5-fluoro-4-(4-(4-methyl-2-oxopiperazin-1-yl)piperidin-1-yl)pyridin-3-yl)pyrazolo[1,5-a]pyrimidine-3-carboxamide]"

# Same assay, conditions: Ki(app), 5 nM full-length ATR, 10 μM ATP, 25° C.
row,Structure (SMILES),Ki [nM]
1,"CN1CCN(C(=O)N2CCN(c3c(F)cncc3NC(=O)c3c(N)nn4cc(F)cnc34)CC2)CC1 [I-N-140, 2-amino-6-fluoro-N-(5-fluoro-4-(4-(4-methylpiperazine-1-carbonyl)piperazin-1-yl)pyridin-3-yl)pyrazolo[1,5-a]pyrimidine-3-carboxamide]",10 to 1000
2,"CC(C#N)c1cnc2c(C(=O)Nc3cnccc3N3CCN(C4COC4)CC3)c(N)nn2c1 (centres unmarked) [I-N-143, 2-amino-6-(1-cyanoethyl)-N-(4-(4-(oxetan-3-yl)piperazin-1-yl)pyridin-3-yl)pyrazolo[1,5-a]pyrimidine-3-carboxamide]",10 to 1000
3,CC(C#N)c1cnc2c(C(=O)Nc3cncc(F)c3N3CCN(C4COC4)CC3)c(N)nn2c1 (centres unmarked) [I-N-145],10 to 1000
4,"Nc1nn2cc(F)cnc2c1C(=O)Nc1cncc(F)c1N1CCC(N2CCCC2=O)CC1 [I-N-147, 2-amino-6-fluoro-N-(5-fluoro-4-(4-(2-oxopyrrolidin-1-yl)piperidin-1-yl)pyridin-3-yl)pyrazolo[1,5-a]pyrimidine-3-carboxamide]",10 to 1000
5,"CN1CCN(CC2CCN(c3c(F)cncc3NC(=O)c3c(N)nn4cc(F)cnc34)CC2)CC1 [I-N-150, 2-amino-6-fluoro-N-(5-fluoro-4-(4-((4-methylpiperazin-1-yl)methyl)piperidin-1-yl)pyridin-3-yl)pyrazolo[1,5-a]pyrimidine-3-carboxamide]",10 to 1000
6,"CN1CCC(C(=O)N2CCN(c3c(F)cncc3NC(=O)c3c(N)nn4cc(F)cnc34)CC2)C1 (centres unmarked) [I-N-156, 2-amino-6-fluoro-N-(5-fluoro-4-(4-(1-methylpyrrolidine-3-carbonyl)piperazin-1-yl)pyridin-3-yl)pyrazolo[1,5-a]pyrimidine-3-carboxamide]",10 to 1000
7,"CN1CCC[C@H]1C(=O)N1CCN(c2c(F)cncc2NC(=O)c2c(N)nn3cc(F)cnc23)CC1 [I-N-157, (S)-2-amino-6-fluoro-N-(5-fluoro-4-(4-(1-methylpyrrolidine-2-carbonyl)piperazin-1-yl)pyridin-3-yl)pyrazolo[1,5-a]pyrimidine-3-carboxamide]",10 to 1000
8,"Nc1nn2cc(F)cnc2c1C(=O)Nc1cncc(F)c1N1CCN(C(=O)CN2CCC2)CC1 [I-N-160, 2-amino-N-(4-(4-(2-(azetidin-1-yl)acetyl)piperazin-1-yl)-5-fluoropyridin-3-yl)-6-fluoropyrazolo[1,5-a]pyrimidine-3-carboxamide]",10 to 1000
9,"Cc1ncn(-c2ccncc2NC(=O)c2c(N)nn3cc(F)cnc23)n1 [I-N-161, 2-amino-6-fluoro-N-(4-(3-methyl-1H-1,2,4-triazol-1-yl)pyridin-3-yl)pyrazolo[1,5-a]pyrimidine-3-carboxamide]",10 to 1000
10,"Cc1ncnn1-c1ccncc1NC(=O)c1c(N)nn2cc(F)cnc12 [I-N-162, 2-amino-6-fluoro-N-(4-(5-methyl-1H-1,2,4-triazol-1-yl)pyridin-3-yl)pyrazolo[1,5-a]pyrimidine-3-carboxamide]",10 to 1000
11,"Nc1nn2cc(F)cnc2c1C(=O)Nc1cncc(F)c1N1CCN2C(=O)CCC2C1 (centres unmarked) [I-N-163, 2-amino-6-fluoro-N-(5-fluoro-4-(6-oxohexahydropyrrolo[1,2-a]pyrazin-2(1H)-yl)pyridin-3-yl)pyrazolo[1,5-a]pyrimidine-3-carboxamide]",10 to 1000
12,"Nc1nn2cc(F)cnc2c1C(=O)Nc1cncc(F)c1N1CCC(OCCN2CCCC2)CC1 [I-N-167, 2-amino-6-fluoro-N-(5-fluoro-4-(4-(2-(pyrrolidin-1-yl)ethoxy)piperidin-1-yl)pyridin-3-yl)pyrazolo[1,5-a]pyrimidine-3-carboxamide]",10 to 1000
13,"Nc1nn2cc(F)cnc2c1C(=O)Nc1cncc(F)c1N1CCN(C(=O)C2CNC2)CC1 [I-N-168, 2-amino-N-(4-(4-(azetidine-3-carbonyl)piperazin-1-yl)-5-fluoropyridin-3-yl)-6-fluoropyrazolo[1,5-a]pyrimidine-3-carboxamide]",10 to 1000
14,"CN1CCN(CC2CCN(c3c(F)cncc3NC(=O)c3c(N)nn4cc(F)cnc34)CC2)CC1=O [I-N-171, 2-amino-6-fluoro-N-(5-fluoro-4-(4-((4-methyl-3-oxopiperazin-1-yl)methyl)piperidin-1-yl)pyridin-3-yl)pyrazolo[1,5-a]pyrimidine-3-carboxamide]",10 to 1000
15,"Nc1nn2cc(F)cnc2c1C(=O)Nc1cncc(F)c1N1CCN(C(=O)C2CNCCO2)CC1 (centres unmarked) [I-N-172, 2-amino-6-fluoro-N-(5-fluoro-4-(4-(morpholine-2-carbonyl)piperazin-1-yl)pyridin-3-yl)pyrazolo[1,5-a]pyrimidine-3-carboxamide]",10 to 1000
16,"CN1CCOC(C(=O)N2CCN(c3c(F)cncc3NC(=O)c3c(N)nn4cc(F)cnc34)CC2)C1 (centres unmarked) [I-N-174, 2-amino-6-fluoro-N-(5-fluoro-4-(4-(4-methylmorpholine-2-carbonyl)piperazin-1-yl)pyridin-3-yl)pyrazolo[1,5-a]pyrimidine-3-carboxamide]",10 to 1000

# Further lines, results first:
row,Ki [nM],Structure (SMILES)
1,10 to 1000,"CN(C)S(=O)(=O)C1CCN(c2c(F)cncc2NC(=O)c2c(N)nn3cc(F)cnc23)CC1 [I-N-146, 2-amino-N-(4-(4-(N,N-dimethylsulfamoyl)piperidin-1-yl)-5-fluoropyridin-3-yl)-6-fluoropyrazolo[1,5-a]pyrimidine-3-carboxamide]"
2,10 to 1000,"CN1CCC(N(C)S(=O)(=O)C2CCN(c3c(F)cncc3NC(=O)c3c(N)nn4cc(F)cnc34)CC2)CC1 [I-N-148, 2-amino-6-fluoro-N-(5-fluoro-4-(4-(N-methyl-N-(1-methylpiperidin-4-yl)sulfamoyl)piperidin-1-yl)pyridin-3-yl)pyrazolo[1,5-a]pyrimidine-3-carboxamide]"
3,10 to 1000,"Nc1nn2cc(F)cnc2c1C(=O)Nc1cncc(F)c1N1CCC(CN2CCOCC2)CC1 [I-N-149, 2-amino-6-fluoro-N-(5-fluoro-4-(4-(morpholinomethyl)piperidin-1-yl)pyridin-3-yl)pyrazolo[1,5-a]pyrimidine-3-carboxamide]"
4,10 to 1000,"CN1CCC(OC2CCN(c3ccncc3NC(=O)c3c(N)nn4cc(F)cnc34)CC2)CC1 [I-N-154, 2-amino-6-fluoro-N-(4-(4-((1-methylpiperidin-4-yl)oxy)piperidin-1-yl)pyridin-3-yl)pyrazolo[1,5-a]pyrimidine-3-carboxamide]"
5,10 to 1000,"Nc1nn2cc(F)cnc2c1C(=O)Nc1cncc(F)c1N1CCC(S(=O)(=O)N2CCOCC2)CC1 [I-N-155, 2-amino-6-fluoro-N-(5-fluoro-4-(4-(morpholinosulfonyl)piperidin-1-yl)pyridin-3-yl)pyrazolo[1,5-a]pyrimidine-3-carboxamide]"
6,10 to 1000,"Nc1nn2cc(F)cnc2c1C(=O)Nc1cncc(F)c1N1CCN(S(=O)(=O)C2CCOCC2)CC1 [I-N-158, 2-amino-6-fluoro-N-(5-fluoro-4-(4-((tetrahydro-2H-pyran-4-yl)sulfonyl)piperazin-1-yl)pyridin-3-yl)pyrazolo[1,5-a]pyrimidine-3-carboxamide]"
7,10 to 1000,"Nc1nn2cc(F)cnc2c1C(=O)Nc1cncc(F)c1N1CCN(S(=O)(=O)C2CC2)CC1 [I-N-159, 2-amino-N-(4-(4-(cyclopropylsulfonyl)piperazin-1-yl)-5-fluoropyridin-3-yl)-6-fluoropyrazolo[1,5-a]pyrimidine-3-carboxamide]"
8,10 to 1000,"CN1CC(OC2CCN(c3ccncc3NC(=O)c3c(N)nn4cc(F)cnc34)CC2)C1 [I-N-164, 2-amino-6-fluoro-N-(4-(4-((1-methylazetidin-3-yl)oxy)piperidin-1-yl)pyridin-3-yl)pyrazolo[1,5-a]pyrimidine-3-carboxamide]"
9,10 to 1000,"CS(=O)(=O)C1CCN(c2c(F)cncc2NC(=O)c2c(N)nn3cc(F)cnc23)CC1 [I-N-165, 2-amino-6-fluoro-N-(5-fluoro-4-(4-(methylsulfonyl)piperidin-1-yl)pyridin-3-yl)pyrazolo[1,5-a]pyrimidine-3-carboxamide]"
10,10 to 1000,"Nc1nn2cc(F)cnc2c1C(=O)Nc1cncc(F)c1N1CCC(S(=O)(=O)N2CCC2)CC1 [I-N-169, 2-amino-N-(4-(4-(azetidin-1-ylsulfonyl)piperidin-1-yl)-5-fluoropyridin-3-yl)-6-fluoropyrazolo[1,5-a]pyrimidine-3-carboxamide]"
11,10 to 1000,"Nc1nn2cc(F)cnc2c1C(=O)Nc1cnccc1N1CCC(S(=O)(=O)N2CCOCC2)CC1 [I-N-170, 2-amino-6-fluoro-N-(4-(4-(morpholinosulfonyl)piperidin-1-yl)pyridin-3-yl)pyrazolo[1,5-a]pyrimidine-3-carboxamide]"
12,10 to 1000,"CN1CCC(S(=O)(=O)N2CCN(c3c(F)cncc3NC(=O)c3c(N)nn4cc(F)cnc34)CC2)CC1 [I-N-175, 2-amino-6-fluoro-N-(5-fluoro-4-(4-((1-methylpiperidin-4-yl)sulfonyl)piperazin-1-yl)pyridin-3-yl)pyrazolo[1,5-a]pyrimidine-3-carboxamide]"
13,10 to 1000,"Nc1nn2cc(F)cnc2c1C(=O)Nc1cnccc1N1CCN(S(=O)(=O)C2CC2)CC1 [I-N-176, 2-amino-N-(4-(4-(cyclopropylsulfonyl)piperazin-1-yl)pyridin-3-yl)-6-fluoropyrazolo[1,5-a]pyrimidine-3-carboxamide]"
